Source: patent publication US20210154272A1, “NEUROMODULATING COMPOSITIONS AND RELATED THERAPEUTIC METHODS FOR THE TREATMENT OF CANCER BY MODULATING AN ANTI-CANCER IMMUNE RESPONSE” (Flagship Pioneering Innovations V, Inc., priority 2016, published 2021)

Legend:
primary human T cells = test: T cell activation and cytokine secretion assay (LEGENDplex); format: cell-based
Procedure: Peripheral blood mononuclear cells (PBMCs) were isolated from whole blood by ficoll density separation. Briefly, blood was diluted 1:2 with 0.5 mM EDTA solution in PBS, loaded onto a Ficoll-filled Leucosep tube (Greiner Bio-One), and centrifuged for 20 minutes at 1000×g. After centrifugation, the leukocyte/PBMC layer on top of the separation medium was collected and sequentially washed three times with 0.5 mM EDTA solution in PBS. T cells were isolated from PBMCs using magnetic bead-based separation following vendor specification, e.g., Biolegend MojoSort Human CD4/CD8 Naïve T Cell Isolation Kit protocol. In brief, the PBMCs were labeled with biotinylated antibodies against cell surface receptors for cells not in the population of interest. The labeled cells are then captured by streptavidin-coated magnetic beads and removed by magnetic incubation. The uncaptured cells that flow through the magnetic separation are predominantly comprised of the population of interest, in this instance CD3+ T cells. T cells were stained with a 5 μM solution of Tag-it Violet™ dye (BioLegend) for 20 minutes protected from light. The stain was quenched by incubating the cells in cell culture medium containing 10% FBS (complete media). Stained cells were plated on tissue culture plates and sub-maximally activated with concanavalin A (con A) added to the culture medium. Cells were plated at 0.1×10^6 cells well. […] Cells were collected at 24, 48, and 72 hrs. Supernatants were collected at 24, 48, and 72 hrs and cytokine secretion was analyzed by flow cytometry using a LEGENDplex assay (BioLegend). In brief, following manufacturer's protocol, beads pre-coated with antibodies specific to various cytokines were incubated with cell supernatant. […] The beads were then stained and the captured cytokine composition assessed by flow cytometry.

[1] = tested on: T cells in the lymph node; test: Lymph node remodeling by hock injection, flow cytometry of lymph node cells; format: in vivo, C57BL/6J mice; conditions: hock injection of Haloperidol 48.5 nmol followed by quinpirole 0.1 nmol; 24 hours
Procedure: 24 hours after hock injection, brachial lymph nodes (LN) were harvested in culture medium (RPMI+10% FBS). LNs were transferred to 24-well tissue culture plates containing 0.5 mL LN digestion buffer (RPMI, 2% FBS, collagenase D (3.3 mg/mL), and DNAse I (40 ug/mL)). LN capsules were manually opened with two syringe (26G) needles and the LNs were incubated in digestion buffer for 15 minutes. Digested LNs were filtered with a 40 μNA cell strainer and tissues were smashed with the plunger of a 5 mL syringe. Collected cells were washed in culture medium and plated for assays. Total number of viable cells were assessed by staining with viability dye eFluor 780 (eBioscience). Surface markers of various immune cell subsets were analyzed by staining the cells with antibodies for cell identity (CD3, CD4, CD8, CD19), for the inflammatory marker CD69, and the migratory marker CCR7. The cells were then assayed by flow cytometry.

[2] = tested on: macrophages differentiated from CD14+ monocytes; test: Macrophage activation and cytokine secretion assay; format: cell-based, human; conditions: dilutions from 10 μM to 1 nM
Procedure: Peripheral blood mononuclear cells (PBMCs) were isolated from whole blood by ficoll density separation. Briefly, blood was diluted 1:2 with 0.5 mM EDTA solution in PBS, loaded onto a Ficoll-filled Leucosep tube (Greiner Bio-One), and centrifuged for 20 minutes at 1000×g. After centrifugation, the leukocyte/PBMC layer was collected and sequentially washed three times with 0.5 mM EDTA solution in PBS.
Monocytes (CD14+) were isolated from PBMCs using magnetic bead-based separation following vendor specifications, e.g., Biolegend MojoSort Human CD14 Selection Kit protocol. In brief, PBMCs were labeled with biotinylated antibodies against cell surface receptors for cells not in the population of interest. The labeled cells are then captured by streptavidin-coated magnetic beads and removed by magnetic incubation. The uncaptured cells that flow through the magnetic separation are predominantly comprised of the population of interest, in this case CD14+ monocytes.
Monocytes were differentiated into macrophages by culturing in DMEM complete medium containing 10% FBS for seven days in the presence of 40 ng/mL human M-CSF. Media was changed on day 1 and day 4. On Day 4, macrophages were polarized to various subtypes as follows: M0—incubated with 40 ng/mL M-CSF; M1—cultured with 40 ng/mL M-CSF, 20 ng/mL IFNγ, and 50 ng/mL LPS; M2—incubated with 40 ng/mL M-CSF, 20 ng/mL 1L4, 20 ng/mL IL10, and 20 ng/mL TFGB. On day 7, cells were harvested by scraping them from the tissue culture plates and transferring them to 96-well plates.
Supernatants were collected at 24, 48, and 72 hrs and cytokine secretion was analyzed by flow cytometry using a LEGENDplex assay (BioLegend). In brief, following manufacturer's protocol, beads that are pre-coated with antibodies specific to various cytokines were incubated with cell supernatant. […] The beads were then stained and the captured cytokine composition assessed by flow cytometry.
M1 macrophage polarization is defined as increase in production of IL-12, TNF, IL-6, IL-8, IL-1B, MCP-1 and CCL2. Additionally, markers of M1 polarization that can be detected by RNA include Nos2. M2 polarization is defined as increase in IL-10 and/or a decrease in the M1 cytokines listed above. Additionally, markers of M2 polarization that can be detected by RNA include Arg1, IDO, PF4, CCL24, IL10, and IL4Ralpha.

[3] = tested on: Primary Natural Killer (NK) cells; test: NK cell ADCC assay with trastuzumab-coated Her2 expressing target cells; format: cell-based, human; conditions: for ADCC of NK cells treated with metaproterenol alone relative to NK cells pre-treated with this antagonist prior to the agonist: antagonist pre-treatment prior to metaproterenol
Procedure: Primary Natural Killer (NK) cells are isolated from human peripheral blood using a magnetic bead-based separation kit that negatively selects NK cells by sequestering other defined cell types (T, B, monocytes, etc.). Isolated NK cells are incubated with a target cell line, for example a Her2 expressing cancer cell line that has been pre-coated with trastuzumab, an anti-Her2 antibody, at a range of target-to-effector cell ratios. Following antibody-dependent cell cytotoxicity (ADCC)—antibody-mediated killing of the target cells by the NK cells, the number of surviving target cells is assessed by a fluorescent viability stain.

[4] = low sub-nanomolar concentrations, 72 hours post treatment
[5] = T cells from two different donors, multiple time points

NCCc1ccc(O)c(O)c1 [dopamine]
production of the pro-survival cytokine IL-2 (primary human T cells; 24 and 48 hours post stimulation, nanomolar concentrations): increase
production of the pro-inflammatory cytokine IL-5 (primary human T cells; [4]): increase
production of the pro-inflammatory cytokine IL-6 (primary human T cells; [4]): increase
production of the pro-inflammatory cytokine IL-10 (primary human T cells; [4]): increase
production of the pro-inflammatory cytokine IL-13 (primary human T cells; [4]): increase
production of the pro-inflammatory cytokine IFNγ (primary human T cells; low sub-nanomolar concentrations, 72 hours post treatment, con A sub-maximally activated T cells): increase

O=C(CCCN1CCC(O)(c2ccc(Cl)cc2)CC1)c1ccc(F)cc1 [haloperidol]
effect of antagonist pre-treatment on the quinpirole-induced increase of CCR7+ T cells in the lymph node [1]: inhibited

CC(C)NCC(O)c1ccc(O)c(O)c1 (stereo not drawn) [isoproterenol]
production of pro-inflammatory cytokine IFNγ (primary human T cells; T cells from two different donors, 72 hours (FIG. 6A)): decreased
production of pro-inflammatory cytokine TNFα (primary human T cells; T cells from two different donors, 72 hours (FIG. 6B)): decreased
production of pro-inflammatory cytokine IL-10 (primary human T cells; T cells from two different donors, 72 hours (FIG. 6C)): decreased
amount of pro-inflammatory cytokine IL-10 (primary human T cells; [5]): decrease
production of pro-inflammatory cytokine IFNγ (primary human T cells; [5]): decrease
production of pro-inflammatory cytokine TNFα (primary human T cells; [5]): decrease
transcript of NOS2 ([2]; M1 marker): decrease
transcripts for Arg1 ([2]; M2 marker): increase
transcripts for IL-10 ([2]; M2 marker): increase
macrophage polarization (M1 or M2 phenotype) [2]: polarized toward an M2 phenotype

CC(C)NCC(O)c1cc(O)cc(O)c1 (stereo not drawn) [metaproterenol]
ADCC induced by agonist-treated NK cells, compared with NK cells pre-treated with a beta adrenergic antagonist prior to the agonist ([3]; surviving target cells by fluorescent viability stain): significantly less ADCC

CC(C)(C)NCC(O)COc1cccc2c1CC(O)C(O)C2 (stereo not drawn) [nadolol]
ADCC of NK cells treated with metaproterenol alone relative to NK cells pre-treated with this antagonist prior to the agonist [3]: significantly less ADCC

CC(C)NCC(O)COc1cccc2ccccc12 (stereo not drawn) [propranolol]
ADCC of NK cells treated with metaproterenol alone relative to NK cells pre-treated with this antagonist prior to the agonist [3]: significantly less ADCC

neuropeptide Y
cytokine IL-4 (primary human T cells; sub-nanomolar concentrations, 48 hours post-treatment): increase
